Patent publication US20220315572A1, “SUBSTITUTED CYANOPYRROLIDINES WITH ACTIVITY AS USP30 INHIBITORS” (MISSION THERAPEUTICS LIMITED, priority 2019, published 2022)

Tests used:
UCHL1 = biological target: T1, UCHL1 (Homo sapiens, UniProt P09936); assay: DUB biochemical IC50 assay, UCHL1
T1 sequence (P09936 1-223): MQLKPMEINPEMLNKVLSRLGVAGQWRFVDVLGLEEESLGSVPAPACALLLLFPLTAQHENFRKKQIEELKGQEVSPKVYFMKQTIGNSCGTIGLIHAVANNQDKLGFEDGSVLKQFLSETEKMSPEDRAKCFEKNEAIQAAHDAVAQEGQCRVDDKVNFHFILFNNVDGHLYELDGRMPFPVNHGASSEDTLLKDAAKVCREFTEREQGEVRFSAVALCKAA

Endogenous USP30 = biological target: T2, Endogenous USP30 (Homo sapiens, UniProt Q70CQ3); assay: USP30 endogenous cellular target engagement western blot assay (Cell TE WB); type: cell-based; settings: Hela cells stably overexpressing YFP-Parkin, 1 hour
T2 construct: USP30 endogenous cellular target engagement western blot (WB) assay; endogenous in cells; host or cells: HeLa stably overexpressing YFP-Parkin
T2 sequence (Q70CQ3 1-517): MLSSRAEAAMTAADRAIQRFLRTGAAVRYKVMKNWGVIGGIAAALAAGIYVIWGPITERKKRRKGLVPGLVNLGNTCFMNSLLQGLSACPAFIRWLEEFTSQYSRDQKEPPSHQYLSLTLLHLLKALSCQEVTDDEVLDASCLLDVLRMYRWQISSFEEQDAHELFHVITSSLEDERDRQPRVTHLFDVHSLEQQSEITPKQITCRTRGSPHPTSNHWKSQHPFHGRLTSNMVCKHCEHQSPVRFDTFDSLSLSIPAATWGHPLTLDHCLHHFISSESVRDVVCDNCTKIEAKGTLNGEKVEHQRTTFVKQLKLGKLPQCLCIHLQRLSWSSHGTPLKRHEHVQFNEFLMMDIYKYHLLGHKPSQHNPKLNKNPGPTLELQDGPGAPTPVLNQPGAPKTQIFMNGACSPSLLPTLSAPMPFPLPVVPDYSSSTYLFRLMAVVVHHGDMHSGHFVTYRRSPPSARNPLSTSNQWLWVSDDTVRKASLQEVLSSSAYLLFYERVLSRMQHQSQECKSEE
Method: Hela cells stably overexpressing YFP-Parkin were seeded into 6 well dishes. Once adhered, cells were treated with appropriate concentrations of test compounds or vehicle control for 1 hour at 37° C., 5% CO2. Whole cell lysates were prepared by scraping the cells into cold PBS, centrifuging and lysing in lysis buffer (50 mM Tris-base, pH 7.5, 50 mM NaCl, 1% NP-40/Igepal CA-630, 2 mM MgCl2, 10% Glycerol, 5 mM beta-mercaptoethanol, cOmplete mini tablets EDTA free (Roche), PhosStop tablets (Roche)) for 10 mins. The equivalent of 20 μg of protein from the cleared cell lysate was incubated with a final conc of 2.5 μM HA-Ahx-Ahx-Ub-VME probe at room temperature. The reaction was stopped by addition of 5×SDS sample loading buffer and proteins separated by SDS PAGE and western blotting. USP30 was detected using an anti-USP30 Sheep S746D antibody (MRC PPU Reagents and Services) and a rabbit anti sheep secondary IgG (H+L) horseradish peroxidase conjugated (Thermo #31480) and visualised using ECL reagent (GE #RPN2109) on a GE LAS4000 imager. Target engagement was measured by quantitation of the bands corresponding to USP30 and USP30 bound to the Ub-VME probe and expression of this proportion compared to vehicle treated control.
Cell TE WB: USP30 endogenous cellular target engagement western blot (WB) assay. Assays the activity of compounds against USP30 in cells using an irreversible activity probe to monitor USP30 activity.

Cathepsin B = Cathepsin B (Homo sapiens, UniProt P07858); assay: Cathepsin IC50, cathepsin B; type: biochemical
Cathepsin K = biological target: T3, Cathepsin K (Homo sapiens, UniProt P43235); assay: Cathepsin IC50, cathepsin K; type: biochemical
T3 sequence (P43235 115-329): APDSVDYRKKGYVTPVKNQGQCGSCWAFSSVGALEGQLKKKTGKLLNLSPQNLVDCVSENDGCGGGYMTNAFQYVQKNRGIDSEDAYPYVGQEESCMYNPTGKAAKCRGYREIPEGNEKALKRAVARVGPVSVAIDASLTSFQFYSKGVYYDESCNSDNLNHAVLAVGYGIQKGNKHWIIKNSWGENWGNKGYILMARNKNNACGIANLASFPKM

Cathepsin L = Cathepsin L (Homo sapiens, UniProt P07711); assay: Cathepsin IC50, cathepsin L; type: biochemical
Sequence of Cathepsin L (P07711 114-333, species assumed): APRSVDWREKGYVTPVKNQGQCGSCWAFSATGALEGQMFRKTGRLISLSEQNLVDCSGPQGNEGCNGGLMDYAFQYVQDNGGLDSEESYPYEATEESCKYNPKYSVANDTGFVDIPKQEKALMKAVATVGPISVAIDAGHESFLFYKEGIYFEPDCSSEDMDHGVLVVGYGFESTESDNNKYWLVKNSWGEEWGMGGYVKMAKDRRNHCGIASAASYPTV

Cathepsin V = Cathepsin V (Homo sapiens, UniProt O60911); assay: Cathepsin IC50, cathepsin V; type: biochemical
Sequence of Cathepsin V (O60911 114-334, species assumed): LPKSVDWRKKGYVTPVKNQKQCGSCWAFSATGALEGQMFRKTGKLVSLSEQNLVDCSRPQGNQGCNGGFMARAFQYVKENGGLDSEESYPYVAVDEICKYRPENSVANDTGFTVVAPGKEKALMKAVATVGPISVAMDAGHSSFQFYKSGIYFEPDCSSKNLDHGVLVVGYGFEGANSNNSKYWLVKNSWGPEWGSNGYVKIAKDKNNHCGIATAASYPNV

[1] = system: USP2, USP10, USP16, USP21, USP22, USP25, USP28, USP35, USP46; assay: DUB biochemical IC50 assays, nine DUBs; settings: range over the nine DUBs; for IC50: Ref. Ex. C excl. USP22, Ref. Ex. D excl. USP2, 46

Structure (SMILES) | DUB selectivity preference for USP30 v UCHL1 (UCHL1) | IC50 (UCHL1) [µM] | EC50 (Endogenous USP30) [µM] | IC50 (Cathepsin B) [µM] | IC50 (Cathepsin K) [µM] | IC50 (Cathepsin L) [µM] | IC50 (Cathepsin V) [µM] | DUB selectivity preference for USP30 v 9 DUBs [1] | IC50 [1] [µM] | fold more selective for USP30 over cathepsin L than A (Cathepsin L; v Reference Example A) [fold] | fold more selective for USP30 over cathepsin L than B (Cathepsin L; v Reference Example B) [fold] | fold more selective for USP30 over cathepsin L than C (Cathepsin L; v Reference Example C) [fold] | fold more selective for USP30 over cathepsin L than D (Cathepsin L; v Reference Example D) [fold] | fold more selective for USP30 over cathepsin L than E (Cathepsin L; v Reference Example E) [fold] | fold more selective for USP30 over cathepsin L than F (Cathepsin L; v Reference Example F) [fold]
N#Cc1cccc(-c2nnc(C(=O)N[C@@H]3C[C@@H](CF)N(C#N)C3)o2)c1 [Example 3, N-((3R,5S)-1-Cyano-5-(fluoromethyl)pyrrolidin-3-yl)-5-(3-cyanophenyl)-1,3,4-oxadiazole-2-carboxamide] | 15400 | 200 | 0.037 | 29.4 | 18.8 | 9.9 | 42.9 | 338-23000 | ≥ 4.4 |  |  |  |  |  | 
C[C@@H]1C[C@@H](NC(=O)c2nnc(-c3cccc(C#N)c3)o2)CN1C#N [Example 1, N-((3R,5R)-1-Cyano-5-methylpyrrolidin-3-yl)-5-(3-cyanophenyl)-1,3,4-oxadiazole-2-carboxamide] | 10300 | > 300 | 0.064 | 154 | 26.2 | 30.9 | 176 | 200-6900 | 5.8 to 202 | 27 | 59 | 18 | 19 | 333 | 3135
